Data on 4 compounds can be found in patent US12053522B2, “Pro-inflammatory and anti-cancer functions of toll-like receptor 4 antagonists” (Children's Medical Center Corporation, priority 2015, dated 2024).

For assay [1], the system named is bone marrow derived DCs. The assay is described as follows: IL-1β release from DCs (ELISA). The class given is cell-based, mouse. The settings on record: for IL-1β release: LPS-primed DCs. How it is done:
NLRP3 KO and ASC KO mice were kindly provided by Dr. T. Horng, Harvard School of Public Health. Caspase-11 KO mice were kindly provided by Dr. Junying Yuan, Harvard Medical School. Caspase-1 single KO mice were kindly provided by Thirumala-Devi Kanneganti (St. Judes). DCs were differentiated from bone marrow in IMDM (Gibco), 10% B16-GM-CSF derived supernatant, 2 μM 2-mercaptoethanol and 10% FBS and used after 6 day of culture. […] MO were differentiated from bone marrow in DMEM (Gibco), 30% L929 supernatant, and 10% FBS. Immortal MΦs were cultured in DMEM supplemented with 10% L929 supernatant and 10% FBS. […] For experiments using pan-caspase inhibitor, cells were treated with zVADfmk (20 μM) 30 min before inflammasome activation stimuli addition. Cycloheximide (50 ng/ml) was added at the time of stimuli administration. Transfection with DOTAP was performed following the manufacturer instructions. […] 30 min later, the DOTAP/LPS or DOTAP/oxPAPC complex were added to the culture.
(§1) RNA was isolated from cell cultures using Qiashedder (Qiagen) and GeneJET RNA Purification Kit (Life Technologies). Purified RNA was analyzed for gene expression on a CFX384 real time cycler (Bio-rad) using TaqMan RNA-to-CT 1-Step Kit (Applied Biosystems) with probes purchased from Life Technologies specific for viperin (Mm00491265_m1), IFNb1 (Mm00439552_s1), IL6 (Mm00446190_m1), caspase-1 (Mm00438023_m1), caspase-11 (Mm00432307_m1), Nlrp3 (Mm00840904_m1), Asc (Mm00445747_g1), TBP (Mm00446971_m1) or GAPDH (Mm99999915_g1). ELISA for IL-1β, IL-2, IL-17, IL-18, TNFα and IFNγ were performed using Mouse Ready-SET-Go ELISA kits (eBioscience). To measure secreted cytokines, supernatant were collected, clarified by centrifugation and stored at −20° C. Cell associated cytokines were measured as follows: 96-well plates were centrifuged and supernatant was discarded. 250 μl of PBS were added to each well. Cells were frozen and thawed two times at −80° C. and then stored at −20° C. for further analysis.
For orientation: In an ELISA, binding on a coated surface is turned into a signal by an enzyme label.

The test system of assay [2] is DCs. Put plainly: TNFα secretion from DCs (ELISA). It is filed as cell-based, mouse. The note with it: LPS-primed DCs.
Text: C57BL/6J (Jax 000664), C57BL/6NJ (Jax 005304), CD14 KO (Jax 003726), caspase-1/-11 dKO mice (Jax 016621), TLR4-mutant (C3H/HeJ, Jax 000659), and wild-type control for TLR4-mutant (C3H/HeSNJ, Jax 000661) were purchased from Jackson Labs. NLRP3 KO and ASC KO mice were kindly provided by Dr. T. Horng, Harvard School of Public Health. Caspase-11 KO mice were kindly provided by Dr. Junying Yuan, Harvard Medical School. Caspase-1 single KO mice were kindly provided by Thirumala-Devi Kanneganti (St. Judes). DCs were differentiated from bone marrow in IMDM (Gibco), 10% B16-GM-CSF derived supernatant, 2 μM 2-mercaptoethanol and 10% FBS and used after 6 day of culture. DC purity was assessed by flow cytometry and was usually higher than 90%. MO were differentiated from bone marrow in DMEM (Gibco), 30% L929 supernatant, and 10% FBS. Immortal MΦs were cultured in DMEM supplemented with 10% L929 supernatant and 10% FBS. Splenic DCs were purified as described previously (Zanoni et al., 2012). Prior to stimulations, cultured cells were washed and re-plated in DMEM supplemented with 10% FBS at a concentration of 1×10^6 cells/ml in a final volume of 100 μl. For experiments using pan-caspase inhibitor, cells were treated with zVADfmk (20 μM) 30 min before inflammasome activation stimuli addition. […]
as §1, with “To measure secreted cytokines, supernatant were collected, clarified by centrifugation and stored at −20° C.” left out, “250 μl of PBS were added to each well. Cells were frozen and thawed two times at −80° C. and then stored at −20° C. for further analysis.” left out

For assay [3], the target named is T1, catalytic mutant caspase-11 full length (C254A) (Mus musculus, UniProt P70343, C254A).
T1 construct: recombinant catalytic mutant caspase-11 full length (C254A); His; made in house; host or cells: SF-21 insect cells (baculovirus)
T1 sequence (P70343 81-373 C254A): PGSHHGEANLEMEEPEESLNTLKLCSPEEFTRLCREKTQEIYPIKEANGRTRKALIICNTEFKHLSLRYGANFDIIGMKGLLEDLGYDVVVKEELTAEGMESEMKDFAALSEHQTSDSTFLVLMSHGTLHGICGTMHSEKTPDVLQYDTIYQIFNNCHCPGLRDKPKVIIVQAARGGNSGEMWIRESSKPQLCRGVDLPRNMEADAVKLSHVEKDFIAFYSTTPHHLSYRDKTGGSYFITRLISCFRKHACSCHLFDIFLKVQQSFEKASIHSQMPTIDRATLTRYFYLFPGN
The assay is described as follows: SPR analysis of lipid binding to immobilized full length caspase-11 (C254A). How it is done: For studies to measure the direct binding of oxPAPC to caspase-11, proteins and SPR analysis was performed as described (Shi, J., et al., (2014b) Nature). Briefly, the recombinant catalytic mutant caspase-11 full length (C254A) and caspase-11 ΔN59 (C254A) were purified from P3 baculovirus infected SF-21 insect cells that were cultured in Sf900™ II SFM for 72 h at 28° C. Cells were lysed in lysis buffer containing 1% Triton X-100, 50 mM Tris-HCl (pH 7.6), 300 mM NaCl, 50 mM imidazole and 5 mM 2-mercaptoethanol. Ni-NTA beads (Qiagen) were used to purify His-tagged proteins from lysates. Proteins were released from the beads with elution buffer containing 50 mM Tris-HCl (pH 7.6), 250 mM imidazole and 300 mM NaCl. Imidazole was removed by dialysis. The proteins were further purified with HiTrap Q column and Superdex G200 column (GE Healthcare Life Sciences) to reach high homogeneity.
For surface plasmon resonance (SPR) analysis, BIAcore T100 SPR instrument (GE Healthcare) was used to measure the ligand binding kinetics. The assays were performed in a buffer containing 150 mM NaCl, 3 mM EDTA, 50 mM HEPES (pH 7.5) and 0.005% Tween-20 at 25° C. […] The KD values were calculated by fitting result curves (subtracted the control flow cell value) to a 1:1 Langmuir binding model with the BIAcore T100 evaluation software.
(In general: Surface plasmon resonance follows binding to a sensor surface in real time, without labels.)

Assay [4] relates to inflammasome in DCs. Put plainly: Inflammasome activation (FIGS. 6-42). It is filed as cell-based.
Assay [5] deals with T2, CD14 (Mus musculus, UniProt P10810).
T2 construct: endogenous in cells; host or cells: iMΦ, primary bone marrow derived MΦ and DCs
T2 sequence (P10810 16-336 limits assumed): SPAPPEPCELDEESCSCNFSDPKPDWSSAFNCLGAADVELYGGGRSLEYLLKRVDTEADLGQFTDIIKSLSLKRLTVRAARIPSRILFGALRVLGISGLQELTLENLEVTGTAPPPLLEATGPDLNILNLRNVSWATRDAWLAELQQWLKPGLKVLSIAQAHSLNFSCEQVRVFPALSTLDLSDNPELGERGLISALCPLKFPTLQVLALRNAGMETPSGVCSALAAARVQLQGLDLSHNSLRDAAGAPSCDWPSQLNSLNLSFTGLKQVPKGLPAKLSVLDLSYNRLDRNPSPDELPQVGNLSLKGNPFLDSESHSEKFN
The assay is described as follows: CD14 endocytosis (surface staining, flow cytometry). It is filed as cell-based. The note with it: protein synthesis blocked with cycloheximide. How it is done:
(§2) primary bone marrow derived MΦs and DCs or splenic DCs (0.5×10^6) of the indicated genotypes were treated with E. coli LPS, oxPAPC or chemical inhibitors for the indicated time points at 37° C. Cells were then washed with 1 mL cold PBS and stained for appropriate antibodies on ice for 20 to 30 minutes. 2% mouse serum or rat serum were used as the blocking reagent to reduce non-specific binding of the antibodies. The stained cells were then washed with 1 mL cold PBS and resuspended in 200 μL PBS. Staining of the surface receptors was analyzed with BD FACSCanto II. The mean fluorescence intensity (MFI) of CD14, TLR4 from unstimulated or stimulated cells was recorded. The percentage of surface receptor staining at indicated time points, which is the ratio of the MFI values measured from the stimulated cells to those measured from the unstimulated cells, was plotted to reflect the efficiency of receptor endocytosis. For measuring the extent of TLR4/MD-2 dimerization, the percentage of TLR4/MD2 dimer was calculated by 100%−the percentage of TLR4/MD-2 monomer. The percentage of the TLR4/MD-2 monomer was determined by the ratio of the MFI values (obtained from MTS510 antibody staining) of the stimulated cells to those of the unstimulated cells were indicated. Cells were stained with anti-MHC class II or anti-CD40 antibodies.
Background: A flow cytometer gives signals particle by particle.

Assay [6] addresses T3, TLR4 (Mus musculus, UniProt Q9JHF9+Q9QUK6).
T3 construct: endogenous in cells; host or cells: iMΦ, primary bone marrow derived MΦ and DCs
T3 sequence (Q9QUK6 26-835): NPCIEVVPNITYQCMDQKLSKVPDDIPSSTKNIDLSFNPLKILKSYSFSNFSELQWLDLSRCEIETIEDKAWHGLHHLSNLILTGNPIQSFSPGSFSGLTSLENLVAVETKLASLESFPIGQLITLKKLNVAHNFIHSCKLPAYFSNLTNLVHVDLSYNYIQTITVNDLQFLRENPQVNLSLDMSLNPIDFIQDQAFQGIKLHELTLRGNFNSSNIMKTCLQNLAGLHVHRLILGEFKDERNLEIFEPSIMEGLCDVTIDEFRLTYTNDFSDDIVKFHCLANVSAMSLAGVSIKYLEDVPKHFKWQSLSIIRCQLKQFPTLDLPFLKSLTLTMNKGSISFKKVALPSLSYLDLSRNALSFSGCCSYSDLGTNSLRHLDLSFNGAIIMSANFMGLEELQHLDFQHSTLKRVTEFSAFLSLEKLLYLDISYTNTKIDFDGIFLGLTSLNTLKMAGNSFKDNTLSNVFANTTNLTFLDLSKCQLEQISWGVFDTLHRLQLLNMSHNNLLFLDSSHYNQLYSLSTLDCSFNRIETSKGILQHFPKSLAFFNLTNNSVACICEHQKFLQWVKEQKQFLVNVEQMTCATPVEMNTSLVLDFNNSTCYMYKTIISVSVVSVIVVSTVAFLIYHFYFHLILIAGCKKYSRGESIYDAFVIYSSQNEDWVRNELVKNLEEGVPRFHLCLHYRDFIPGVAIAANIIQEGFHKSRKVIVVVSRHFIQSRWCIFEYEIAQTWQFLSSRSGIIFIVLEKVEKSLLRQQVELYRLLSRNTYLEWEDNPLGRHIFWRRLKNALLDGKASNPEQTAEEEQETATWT
T3 sequence (Q9JHF9 19-160): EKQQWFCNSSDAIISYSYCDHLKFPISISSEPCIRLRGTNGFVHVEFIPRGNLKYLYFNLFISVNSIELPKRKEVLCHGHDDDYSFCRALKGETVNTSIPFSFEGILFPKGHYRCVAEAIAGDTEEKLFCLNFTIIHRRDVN
The assay is described as follows: TLR4 endocytosis (surface staining, flow cytometry). The note with it: cycloheximide treatment. It is filed as cell-based. How it is done: as §2

In the case of `CCCCCCCCCCCCCC(=O)OC[C@H](COP(=O)([O-])OCC[N+](C)(C)C)OC(=O)CCCCCCCCCCCCC` [DMPC, 1,2-dimyristoyl-sn-glycero-3-phosphocholine], the IL-1β release result in assay [1] is recorded as “unable to elicit IL-1β release”. For the same compound, in assay [2], the TNFα release result is reported as “not affected”. For the same compound, the “binding to immobilized caspase-11(C254A) on SPR” value in assay [3] is “did not bind detectably”.
For `CCCCCCCCCCCCCCCC(=O)OC[C@H](COP(=O)([O-])OCC[N+](C)(C)C)OC(=O)CCCC(=O)/C=C/C(=O)O` [KOdiA-PC, 1-(Palmitoyl)-2-(5-keto-6-octene-dioyl) phosphatidylcholine], the IL-1β release result in assay [1] is “able to elicit IL-1β secretion”. Also, the TNFα release entry in assay [2] was “not affected”. The inflammasome activation entry in assay [4] was “activated the inflammasome in DCs”.
In the case of `CCN(CC)CCCC(C)Nc1ccnc2cc(Cl)ccc12` (stereo not drawn) [chloroquine], in assay [1] (chloroquine pre-treatment, LPS-primed, oxPAPC-treated), the “IL-1β release from DCs” value was “promoted slightly more release of IL-1β”.
Regarding `C[C@@H]1C[C@@H]([C@H](O)CC2CC(=O)NC(=O)C2)C(=O)[C@@H](C)C1` [cycloheximide], the “extent of oxPAPC- or LPS-induced CD14 endocytosis” value in assay [5] was “enhanced”. Also, the “TLR4 internalization or dimerization” value in assay [6] is given as “did not affect”.
